pIC50: −log10 of the molar value. Several values for one entry are separate records, joined by “and”; a condition that tells them apart may be missing. Equal values may be shown once.
Experiments:
rat NaP2b (SLC34A2) = target: T1, rat NaP2b (SLC34A2) (Rattus norvegicus, UniProt Q9JJ09); test: Inhibition of NaP2b-mediated Pi (33P) uptake in transfected HEK293 cells, rat NaP2b; type: cell-based; conditions: 33P Pi uptake, 0.1 mM phosphate, value given as pIC50 range
T1 construct: host or cells: HEK293
T1 sequence (Q9JJ09 1-695): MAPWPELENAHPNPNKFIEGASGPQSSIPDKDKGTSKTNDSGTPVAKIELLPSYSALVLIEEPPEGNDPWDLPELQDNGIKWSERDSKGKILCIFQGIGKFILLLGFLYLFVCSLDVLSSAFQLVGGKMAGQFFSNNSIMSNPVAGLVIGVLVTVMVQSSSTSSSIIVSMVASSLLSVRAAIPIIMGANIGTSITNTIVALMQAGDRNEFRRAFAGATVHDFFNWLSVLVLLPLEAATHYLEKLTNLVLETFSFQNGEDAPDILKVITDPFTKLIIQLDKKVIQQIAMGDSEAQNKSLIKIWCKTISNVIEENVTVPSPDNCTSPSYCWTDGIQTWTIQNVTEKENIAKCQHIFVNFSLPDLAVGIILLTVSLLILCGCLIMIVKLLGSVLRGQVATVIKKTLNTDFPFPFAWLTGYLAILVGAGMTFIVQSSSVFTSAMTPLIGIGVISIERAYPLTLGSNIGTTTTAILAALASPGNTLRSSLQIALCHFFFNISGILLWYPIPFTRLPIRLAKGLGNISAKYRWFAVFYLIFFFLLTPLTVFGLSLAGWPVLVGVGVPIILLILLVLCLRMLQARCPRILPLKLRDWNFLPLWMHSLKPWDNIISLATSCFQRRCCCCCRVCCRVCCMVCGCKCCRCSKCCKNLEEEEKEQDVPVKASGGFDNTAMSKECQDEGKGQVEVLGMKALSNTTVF
Procedure, shortened: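 HEK293 cells were transiently transfected with NaP2b cDNA using Lipofectamine and grown near confluence. Compounds were tested at twelve concentrations from 0.1 nM to 30 uM in duplicate, and 33P-phosphate uptake was counted by scintillation after lysis. Results are expressed as pIC50.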

[1] = tested on: Uptake of Phosphorus from the Intestine; test: In vivo co-dosing in chow (urine P out / P consumed); conditions: Rattus norvegicus, feed or water, rats, compound in chow, read-out: Mean % inhibition Urine Pout/P consumed; for inhibition in vivo at 120 mg/kg/day: mean drug dose 120 mg/kg/day; for inhibition in vivo at 50 mg/kg/day: mean drug dose 50 mg/kg/day; for inhibition in vivo at 100 mg/kg/day: mean drug dose 100 mg/kg/day
Procedure, shortened: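 Male 7-week-old rats were fed a synthetic diet (0.6% P, 0.6% Ca) for 4 days, then housed in metabolic cages with compound in chow at 1.3 mg/g (nominal 100 mg/kg/day). Urinary P was measured by ion chromatography over 24–96 h and related to dietary P consumed. Percentage inhibition was calculated against no-drug controls.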

[2] = Fecal recovery of orally administered compounds; type: in vivo, Sprague-Dawley rats; conditions: Structure (I) examples, Table 16; rat, oral gavage, feces collected until 48 hr after dosing
Procedure, shortened: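 After oral dosing, feces collected in metabolic cages up to 48 h, lyophilized and ground. Duplicate weighed portions per animal extracted with organic solvent under non-compound-optimized conditions, so recovery may be a minimal estimate.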

[3] = Stability of compounds in simulated gastric fluid (SGF); type: in vitro ADME; conditions: simulated gastric fluid (3 mg/mL pepsin), incubation time 6 hr, relative to t=0
Procedure, shortened: (§1)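 Compounds at […] were incubated 3 or 6 hr in USP simulated gastric fluid with 3 mg/mL pepsin or simulated intestinal fluid with 3 mg/mL pancreatin. Remaining compound was quantified by HPLC-UV or HPLC-MS peak area % and reported as percent of the t=0 level in the same medium.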

[4] = Stability of compounds in simulated intestinal fluid (SIF); type: in vitro ADME; conditions: simulated intestinal fluid (3 mg/mL pancreatin), incubation time 6 hr, relative to t=0
Procedure, shortened: as §1

SMILES | pIC50 (rat NaP2b (SLC34A2)) | % recovered in feces [2] | % remaining, SGF [3] | % remaining, SIF [4] | inhibition in vivo at 120 mg/kg/day [1] [%] | inhibition in vivo at 50 mg/kg/day [1] [%] | inhibition in vivo at 100 mg/kg/day [1] [%] | inhibition in vivo at 110 mg/kg/day ([1]; mean drug dose 110 mg/kg/day) [%] | inhibition in vivo at 90 mg/kg/day ([1]; mean drug dose 90 mg/kg/day) [%]
O=C(O)c1cccc(SCc2cccc(C(=O)Nc3ccc(N4CCCCC4)cc3-c3cc(C(=O)NCc4cccc(C(F)(F)F)c4)ccn3)c2)c1 [Example 8.1, 3-(3-(4-(piperidin-1-yl)-2-(4-(3-(trifluoromethyl)benzylcarbamoyl)pyridin-2-yl)phenylcarbamoyl)benzylthio)benzoic acid] | 4.50 to 5.00 and > 6.00 | <20% | 60-80% | >80% |  |  |  |  | 
CCN(CC)c1ccc(NC(=O)c2cccc(CSCCOCCOCCOCCOCCOCCOCCOCCOCCC(=O)O)c2)c(-c2cc(C(=O)NCc3cccc(C(F)(F)F)c3)ccn2)c1 [Example 166, 1-(3-(4-(diethylamino)-2-(4-(3-(trifluoromethyl)benzylcarbamoyl)pyridin-2-yl)phenylcarbamoyl)phenyl)-5,8,11,14,17,20,23,26-octaoxa-2-thianonacosan-29-oic acid] | 5.10 to 6.00 | >80% | >80% | >80% | 10 to 30 |  |  |  | 
CCN(CC)c1ccc(NC(=O)c2cccc(C(=O)N(C)CCOCCOCCOCCC(=O)O)c2)c(-c2cc(C(=O)NCc3cccc(C(F)(F)F)c3)ccn2)c1 [Example 188, 1-(3-((4-(diethylamino)-2-(4-((3-(trifluoromethyl)benzyl)carbamoyl)pyridin-2-yl)phenyl)carbamoyl)phenyl)-2-methyl-1-oxo-5,8,11-trioxa-2-azatetradecan-14-oic acid] | 5.10 to 6.00 |  |  |  |  |  |  | 10 to 30 | 
CN(CCOCCOCCOCCC(=O)O)C(=O)Cc1cccc(SCc2cccc(C(=O)Nc3ccc(N4CCCCC4)cc3-c3cc(C(=O)NCc4cccc(C(F)(F)F)c4)ccn3)c2)c1 [Example 138] | 5.10 to 6.00 | <20% | >80% | 40-60% |  |  |  |  | 
CCN(CC)c1ccc(NC(=O)c2cccc(CCCOCCOCCOCCOCCOCCOCCOCCOCCOCCC(=O)O)c2)c(-c2cc(C(=O)NCc3cccc(C(F)(F)F)c3)ccn2)c1 [Example 298, 31-(3-(4-(diethylamino)-2-(4-(3-(trifluoromethyl)benzylcarbamoyl)pyridin-2-yl)phenylcarbamoyl)phenyl)-4,7,10,13,16,19,22,25,28-nonaoxahentriacontan-1-oic acid] | 5.10 to 6.00 | >80% |  |  |  | 10 to 30 |  |  | 
O=C(NCc1cccc(C(F)(F)F)c1)c1ccnc(-c2cc(N3CCCCC3)ccc2NC(=O)c2cccc(CSc3ccc(C(=O)O)c(Br)c3)c2)c1 [Example 8.21] | 5.10 to 6.00 | >80% | >80% | >80% |  |  |  |  | 
CN(CCN1CCOCC1)C(=O)c1cccc(C(=O)Nc2ccc(N3CCCCC3)cc2-c2cc(C(=O)NCc3cccc(C(F)(F)F)c3)ccn2)c1 [Example 80, N1-Methyl-N1-(2-morpholinoethyl)-N3-(4-(piperidin-1-yl)-2-(4-((3-(trifluoromethyl)benzyl)carbamoyl)pyridin-2-yl)phenyl)isophthalamide] | 5.10 to 6.00 | 20-80% |  |  |  |  |  |  | 
CCN(CC)c1ccc(NC(=O)c2cccc(CCCOCCOCCOCCOCCNS(=O)(=O)c3ccc(C(=O)N(CCOC)CCOCCOCCOCCOCCOCCOCCOC)cc3)c2)c(-c2cc(C(=O)NCc3cccc(C(F)(F)F)c3)ccn2)c1 [Example 272, 2-(2-(3-(1-(4-(2,5,8,11,14,17,20-heptaoxadocosan-22-yl(2-methoxyethyl)carbamoyl)phenylsulfonamido)-3,6,9,12-tetraoxapentadecan-15-yl)benzamido)-5-(diethylamino)phenyl)-N-(3-(trifluoromethyl)benzyl)isonicotinamide] | 5.10 to 6.00 | >80% |  |  |  | ≤ 10 |  |  | 
CCN(CC)c1ccc(NC(=O)c2cccc(CCCOCCOCCOCCOCCOCCC(=O)O)c2)c(-c2cc(C(=O)NCc3cccc(C(F)(F)F)c3)ccn2)c1 [Example 300, 19-(3-(4-(diethylamino)-2-(4-(3-(trifluoromethyl)benzylcarbamoyl)pyridin-2-yl)phenylcarbamoyl)phenyl)-4,7,10,13,16-pentaoxanonadecan-1-oic acid] | 5.10 to 6.00 | 20-80% |  |  |  | ≤ 10 |  |  | 

More lines, main results first:

pIC50 (rat NaP2b (SLC34A2)) | % recovered in feces [2] | % remaining, SGF [3] | % remaining, SIF [4] | SMILES | inhibition in vivo at 120 mg/kg/day [1] [%] | inhibition in vivo at 50 mg/kg/day [1] [%] | inhibition in vivo at 100 mg/kg/day [1] [%] | inhibition in vivo at 110 mg/kg/day ([1]; mean drug dose 110 mg/kg/day) [%] | inhibition in vivo at 90 mg/kg/day ([1]; mean drug dose 90 mg/kg/day) [%]
5.10 to 6.00 | >80% | >80% | >80% | CCN(CC)c1ccc(NC(=O)c2cccc(CSCCOCCOCCOCCOCCOCCOCCOCCOCCC(=O)O)c2)c(-c2cc(C(=O)N[C@H]3CCCc4ccccc43)ccn2)c1 [Example 161, (S)-1-(3-(4-(diethylamino)-2-(4-(1,2,3,4-tetrahydronaphthalen-1-ylcarbamoyl)pyridin-2-yl)phenylcarbamoyl)phenyl)-5,8,11,14,17,20,23,26-octaoxa-2-thianonacosan-29-oic acid] | ≤ 10 |  |  |  | 
5.10 to 6.00 | 20-80% |  |  | CCN(CC)c1ccc(NC(=O)c2cccc(CCCOCCOCCOCCOCCOCCOCCC(=O)O)c2)c(-c2cc(C(=O)NCc3cccc(C(F)(F)F)c3)ccn2)c1 [Example 299, 22-(3-(4-(diethylamino)-2-(4-(3-(trifluoromethyl)benzylcarbamoyl)pyridin-2-yl)phenylcarbamoyl)phenyl)-4,7,10,13,16,19-hexaoxadocosan-1-oic acid] |  | 10 to 30 |  |  | 
> 6.00 |  | >80% | >80% | O=C(O)CCOCCOCCOCCOCCSCc1cccc(C(=O)Nc2ccc(N3CCCCC3)cc2-c2cc(C(=O)N[C@H]3CCCc4ccccc43)ccn2)c1 [Example 142, 1-(3-{[4-(piperidin-1-yl)-2-(4-{[(1S)-1,2,3,4-tetrahydronaphthalen-1-yl]carbamoyl}pyridin-2-yl)phenyl]carbamoyl}phenyl)-5,8,11,14-tetraoxa-2-thiaheptadecan-17-oic acid] |  |  | ≤ 10 |  | 
> 6.00 |  | >80% | >80% | CCN(CC)c1ccc(NC(=O)c2cccc(CSc3cccc(CC(=O)N(C)CCOCCOCCOCCC(=O)O)c3)c2)c(-c2cc(C(=O)NCc3cccc(C(F)(F)F)c3)ccn2)c1 [Example 144, 3-(2-(2-(2-(2-(3-(3-(4-(diethylamino)-2-(4-(3-(trifluoromethyl)benzylcarbamoyl)pyridin-2-yl)phenylcarbamoyl)benzylthio)phenyl)-N-methylacetamido)ethoxy)ethoxy)ethoxy)propanoic acid] |  |  | ≤ 10 |  | 
> 6.00 |  | >80% | >80% | O=C(O)CCOCCOCCOCCOCCCc1cccc(C(=O)Nc2ccc(N3CCCCC3)cc2-c2cc(C(=O)N[C@H]3CCCc4ccccc43)ccn2)c1 [Example 252, 3-(2-(2-(2-(3-(3-((2-(4-(((S)-1,2,3,4-tetrahydronaphthalen-1-yl)carbamoyl)pyridin-2-yl)-4-(piperidin-1-yl)phenyl)carbamoyl)phenyl)propoxy)ethoxy)ethoxy)ethoxy)propanoic acid] |  |  |  |  | 10 to 30

Reference: patent US20140023611A1 (priority 2010, published 2014)
